Experimental data reported in patent US10470991B2, “(R)-N-(adamantyl-2-yl)pyrrolidine-2-carboxamide derivatives for cosmetic use” (DSM IP ASSETS B.V., priority 2015, dated 2019).
Structures can show the parent of a compound that is named as a salt.

Assays:
[1] = target: T1, 11β-HSD1 (Homo sapiens, UniProt P28845); assay: Inhibition of 11-beta-hydroxysteroid dehydrogenase type 1, activity assay in cell lysates (HEK-293 HHH7 clone, radiolabeled cortisone, TLC); assay type: biochemical; design: expressed in transfected cells; host or cells: HEK-293 (HHH7 clone), used as cell lysate; details: inhibitor 300 nM, 10 min 37° C.
Method: The cells were then washed with phosphate-buffered saline, and centrifuged for 4 min at 150×g. After removal of the supernatants, cell pellets were snap frozen on dry ice and stored at −80° C. until further use.
Cell lysates were incubated for 10 min at 37° C. in TS2 buffer (100 mM NaCl, 1 mM EGTA, 1 mM EDTA, 1 mM MgCl2, 250 mM sucrose, 20 mM Tris-HCl, pH 7.4) in a final volume of 22.2 μL containing either solvent (0.1% DMSO) or the inhibitor at the respective concentration as indicated in table 3-1.
Reactions were stopped after 10 min by adding an excess of unlabeled cortisone and cortisol (1:1, 2 mM, in methanol). The steroids were separated by TLC, using methanol-chloroform (1:9) as solvent, followed by scintillation counting and calculation of substrate concentration.

[2] = target: T1, 11β-HSD1; assay: Human keratinocytes assay: 11β-HSD1 activity (cortisol level in supernatant after cortisone treatment); assay type: cell-based; design: Primary human skin keratinocytes obtained from CellNTec advanced Cell Systems; host or cells: primary human skin keratinocytes; details: 1000 nM cortisone, 48 h, primary human keratinocytes
Method: Cell Culture: Primary human skin keratinocytes obtained from CellNTec advanced Cell Systems were maintained in CnT-PR medium at 37° C. in a humidified 5% CO2-air atmosphere. Cells were subcultured before reaching confluence.
Assessment of 11β-HSD1 Activity: Human primary keratinocytes were pre-cultured in complete culture media (CnT-PR, CellNTec) to 90% of confluence. Subsequently cells were washed twice with PBS-buffer to remove remaining corticosteroids and media were exchanged to custom made hydrocortisone-free media. 48 h later cell culture supernatant was collected and cortisol levels were assessed with the Cortisol Parameter Assay Kit (R&D Systems) following the instructions of the protocol and using a Multiskan Ascent plate reader (Labsystems).
Calculation: % remaining 11β-HSD1 activity=(cortisol-level with inhibitor/cortisol-level without inhibitor)*100%

[3] = system: Human skin from abdominal plastic surgery; assay: Total dermal collagen after cortisone and cortisone/inhibitor treatment (human skin samples in culture, Picrosirius Red staining); assay type: cell-based; details: for Dermal collagen (score, untreated sample set to 100%): topical daily
Method: Human skin from abdominal plastic surgery was used. The skin samples were cut in pieces of ˜8×3 mm (Ø×thickness) and cultured up to day 6 in an air-liquid interface in a perforated ring of stainless steel in contact with a culture medium (modified Williams'E medium), while renewing the culture medium on day 3. Six skin specimens were used for each test sample. Each test sample (4 μl) was applied topically on top of each piece after cleaning of the surface with a cotton pad, which was subsequently covered with a 6 Ø mm delivery membrane, this procedure was repeated daily. After 6 days skin sections were stained with Picrosirius Red histochemical staining, that dyes collagen fibers in purple-red. The papillary dermis was selected for the analysis. The different colors of the pictures were separated by using a deconvolution matrix. After deconvolution only pink-reddish images are used. Within these images the evaluation of dermal collagen was performed by estimating both color intensity and distribution with IMAGE J (NIH) analysis software. Two slides of each skin sample were processed by image acquisition and related analysis (i.e. 12 images for each treatment).

T1 sequence (P28845 whole entry): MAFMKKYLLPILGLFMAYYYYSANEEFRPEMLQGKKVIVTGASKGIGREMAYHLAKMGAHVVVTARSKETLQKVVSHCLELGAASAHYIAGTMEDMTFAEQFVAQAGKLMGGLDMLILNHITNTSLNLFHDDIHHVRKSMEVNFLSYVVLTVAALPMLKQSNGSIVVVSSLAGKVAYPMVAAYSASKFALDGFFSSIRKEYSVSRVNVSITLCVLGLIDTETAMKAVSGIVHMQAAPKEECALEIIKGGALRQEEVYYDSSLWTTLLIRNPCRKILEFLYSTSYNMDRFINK

SMILES | 11β-HSD1 Remaining activity [% of control] [1] | remaining 11β-HSD1 activity ([2]; 3.16 nM inhibitor) | remaining 11β-HSD1 activity ([2]; 10.00 nM inhibitor) | remaining 11β-HSD1 activity ([2]; 31.62 nM inhibitor) | remaining 11β-HSD1 activity ([2]; 100.00 nM inhibitor) | remaining 11β-HSD1 activity ([2]; 316.20 nM inhibitor) | remaining 11β-HSD1 activity ([2]; 1000.00 nM inhibitor) | other results
CCOc1ccc(C[C@H](N)C(=O)N2CCC[C@@H]2C(=O)NC2C3CC4CC(C3)CC2C4)cc1 (stereo partly drawn) [(I-k), (R)-N-(adamantan-2-yl)-1-((S)-2-amino-3-(4-ethoxyphenyl)propanoyl)pyrrolidine-2-carboxamide trifluoroacetate] | 41 % of control | 95% | 100% | 89% | 80% | 58% | 36% | 
C[C@]12CCC(=O)C=C1CC[C@@H]1[C@@H]2C(=O)C[C@@]2(C)[C@H]1CC[C@]2(O)C(=O)CO [cortisone, reference compound] |  |  |  |  |  |  |  | Dermal collagen (score, untreated sample set to 100%) ([3]; cortisone 0.1 μM in DMSO alone, day 6, positive control for collagen inhibition): 77%
CC(=O)N[C@@H](Cc1ccc(F)cc1)C(=O)N1CCC[C@@H]1C(=O)NC1C2CC3CC(C2)CC1C3 (stereo partly drawn) [(I-h), (R)-1-((S)-2-acetamido-3-(4-fluorophenyl)propanoyl)-N-(adamantan-2-yl)-pyrrolidine-2-carboxamide] | 37 % of control | 100% | 106% | 89% | 78% | 52% | 25% | 

Continued, in another order:

11β-HSD1 Remaining activity [% of control] [1] | remaining 11β-HSD1 activity ([2]; 3.16 nM inhibitor) | remaining 11β-HSD1 activity ([2]; 10.00 nM inhibitor) | remaining 11β-HSD1 activity ([2]; 31.62 nM inhibitor) | remaining 11β-HSD1 activity ([2]; 100.00 nM inhibitor) | remaining 11β-HSD1 activity ([2]; 316.20 nM inhibitor) | remaining 11β-HSD1 activity ([2]; 1000.00 nM inhibitor) | SMILES | other results
69 % of control |  |  |  |  |  |  | NCC(=O)N[C@@H](Cc1c[nH]c2ccccc12)C(=O)N1CCC[C@@H]1C(=O)NC1C2CC3CC(C2)CC1C3 (stereo partly drawn) [(I-q), (R)-N-(adamantan-2-yl)-1-(glycyl-L-tryptophyl)pyrrolidine-2-carboxamide trifluoroacetate] | 
43 % of control |  |  |  |  |  |  | C[C@H](N)C(=O)NCC(=O)NCCN1CCC[C@@H]1C(=O)NC1C2CC3CC(C2)CC1C3 (stereo partly drawn) [(I-o), (R)-N-(adamantan-2-yl)-1-(2-(2-((S)-2-aminopropanamido)acetamido)ethyl)pyrrolidine-2-carboxamide bistrifluoroacetate] | 
24 % of control | 94% | 92% | 76% | 57% | 28% | 12% | CC(=O)N[C@@H](Cc1ccc(C#N)cc1)C(=O)N1CCC[C@@H]1C(=O)NC1C2CC3CC(C2)CC1C3 (stereo partly drawn) [(I-l), (R)-1-((S)-2-acetamido-3-(4-cyanophenyl)-propanoyl)-N-(adamantan-2-yl)pyrrolidine-2-carboxamide] | Increase versus cortisone (#2) ([3]; 10 μM in DMSO, day 6): +4%; Dermal collagen (score, untreated sample set to 100%) ([3]; 10 μM in DMSO, day 6, cortisone/inhibitor treatment): 80%; Increase versus cortisone (#2) ([3]; 100 μM in DMSO, day 6): +17%; Dermal collagen (score, untreated sample set to 100%) ([3]; 100 μM in DMSO, day 6, cortisone/inhibitor treatment): 90%; Increase versus cortisone (#2) ([3]; 200 μM in DMSO, day 6): +24%; Dermal collagen (score, untreated sample set to 100%) ([3]; 200 μM in DMSO, day 6, cortisone/inhibitor treatment): 96%
57 % of control |  |  |  |  |  |  | C[C@H](NC(=O)CN)C(=O)NCCN1CCC[C@@H]1C(=O)NC1C2CC3CC(C2)CC1C3 (stereo partly drawn) [(I-p), (R)-N-(adamantan-2-yl)-1-(2-((S)-2-(2-aminoacetamido)propanamido)ethyl)pyrrolidine-2-carboxamide bistrifluoroacetate] | 
